Patent US20110014226A1, “HIGH […] I[…]” (priority 2008, published 2011)

Columns and labels:
D5 binding to 5-helix = test: D5 Competitive Binding Assay (DCBA) high throughput screen with F19 counter-screen; parameters: species or system HIV-1; conditions: among the compounds listed in Table 2; DCBA primary screen vs F19 counter-screen
Excerpt: An in vitro binding assay was developed using D5 IgG conjugated to europium cryptate (Eu-D5) and a biotinylated gp41 mimetic molecule that presents the hydrophobic pocket in a stabilized structural context (termed 5-helix (or 5H) peptide). The assay readout is based on a fluorescence resonance energy transfer (FRET) format. Biotin-5-helix binds to a streptavidin-conjugated allophycocyanin (APC) substrate to form a 5H-SA-APC complex. When Eu-D5 binds to the hydrophobic pocket of biotin-5H, it brings the Eu into close proximity with the APC substrate to allow FRET from Eu to APC. When the reaction system is excited at a wavelength of 340 nm, the Eu signals at 620 nm. If the Eu is in close proximity to the APC, it excites the APC which results in long-lived emissions at 665 nm. Introducing a time delay (e.g., ˜100 μseconds) between the system excitation and fluorescence measurement allows the FRET signals to be cleared of non-specific short-lived emissions (“time-resolved FRET”). The resulting specific FRET signal indicative of the amount of Eu-D5 bound to biotin-5H can be quantified by the ratio of fluorescence [counts at 665 nm/fluorescence counts at 620 nm]×10,000. […]
Briefly, the assay was performed in the following manner. […] The plate was then read using the Fusion Universal Microplate Analyzer (Packard Bioscience). […]

CRM197 = conditions: mouse, in vivo
ccIZN36 = test: ELISA of mouse antisera after immunization, coated with ccIZN36; type: in vivo; conditions: balb/c mice, 25 μg conjugate intramuscularly three times at 2-week intervals, Merck aluminum alum + IMO-2055; reciprocal endpoint titers by ELISA
[1] = ELISA of mouse antisera after immunization with hapten-CRM197 conjugates, coated with biotinylated Compound 2.45; type: in vivo; conditions: balb/c mice, 25 μg conjugate intramuscularly three times at 2-week intervals, Merck aluminum alum + IMO-2055; reciprocal endpoint titers by ELISA
[2] = ELISA of mouse antisera after immunization, coated with biotinylated Compound 2.58; type: in vivo; conditions: balb/c mice, 25 μg conjugate intramuscularly three times at 2-week intervals, Merck aluminum alum + IMO-2055; reciprocal endpoint titers by ELISA
5-helix = conditions: in vivo; for Post-dose 3 geometric mean antibody titer (GMT) elicited versus 5-helix: mouse
ccIZN17 = test: ELISA of mouse antisera after immunization, coated with ccIZN17; type: in vivo; conditions: balb/c mice, 25 μg conjugate intramuscularly three times at 2-week intervals, Merck aluminum alum + IMO-2055; reciprocal endpoint titers by ELISA

Row | SMILES | specific inhibition of D5 binding relative to F19 inhibition (D5 binding to 5-helix) | Post-dose 3 geometric mean antibody titer (GMT) elicited versus CRM197 (CRM197) | Post-dose 3 geometric mean antibody titer (GMT) elicited versus ccIZN36 (ccIZN36) | Post-dose 3 geometric mean antibody titer (GMT) elicited versus Compound 2.45 [1] | Post-dose 3 geometric mean antibody titer (GMT) elicited versus Compound 2.58 [2] | binding activity of individual mouse sera in the 5H ELISA (5-helix) | Post-dose 3 geometric mean antibody titer (GMT) elicited versus 5-helix (5-helix) | Post-dose 3 geometric mean antibody titer (GMT) elicited versus ccIZN17 (ccIZN17)
1 | CCNC(=O)[C@]1(Cc2ccccc2)CCCN(C(=O)[C@@H](Cc2ccc3ccccc3c2)NC(=O)N2CC(C)NC(C)C2)C1 (stereo partly drawn) [Compound 1.1] | the best in terms of specific inhibition of D5 binding relative to F19 inhibition |  |  |  |  |  |  | 
2 | CCNC(=O)[C@]1(Cc2ccccc2)CCCN(C(=O)[C@@H](Cc2ccc3ccccc3c2)NC(=O)N2CCNCC2)C1 [Compound 2.45] |  | 1,600 | <100 | >1,600,000 | >1,600,000 | more pronounced binding activity | 400 | <100
3 | CCNC(=O)[C@]1(Cc2ccccc2)CCCN(C(=O)[C@@H](Cc2ccc(Cl)c(Cl)c2)NC(=O)N[C@@H]2CCCNC2)C1 [Compound 2.58] |  | 400 | <100 | >1,600,000 | 713,155 | more pronounced binding activity | 200 | 200
